Data on nine molecules can be found in US11351178B2, “Selective HDAC6 inhibitors” (ITALFARMACO S.P.A., priority 2017, dated 2022).

The pIC50 is the negative decadic logarithm of the IC50, by convention in mol/L. Low values mean a high IC50, high ones a low IC50. As a reminder, the inhibition is the drop in the measured response relative to a control, in per cent.

In one test the target is T1, HDAC11 (Homo sapiens, UniProt Q96DB2).
T1 construct: purchased BML SE560
T1 sequence (Q96DB2 1-347): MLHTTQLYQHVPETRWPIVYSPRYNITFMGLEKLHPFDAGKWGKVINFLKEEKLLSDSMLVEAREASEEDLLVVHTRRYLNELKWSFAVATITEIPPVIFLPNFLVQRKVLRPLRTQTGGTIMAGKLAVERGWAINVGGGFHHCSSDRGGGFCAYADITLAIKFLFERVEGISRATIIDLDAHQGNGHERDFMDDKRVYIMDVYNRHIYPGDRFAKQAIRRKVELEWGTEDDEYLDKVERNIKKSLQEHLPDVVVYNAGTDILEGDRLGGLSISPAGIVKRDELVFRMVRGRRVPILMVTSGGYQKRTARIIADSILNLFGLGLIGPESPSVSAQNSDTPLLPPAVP
Description: Enzymatic test HDAC11. The test is classed as biochemical. The following applies: Table 3. The method, then:
After a period of incubation at 30° C. (incubation times vary for different isoforms and are shown in table 1) 25 μL of solution containing the substrate were added. As substrate, FLUOR DE LYS® deacetylase substrate (Enzo Life Sciences, cat #BML-K1104, FdL), FLUOR DE LYS®-Green substrate (Enzo Life Sciences, cat #BML-K1572 FdL_G) and trifluoroacetyl-L-lysine (Tfal)-2× concentrated solution in 25 mM Tris-HCl, pH 8, 130 mM NaCl 0.05% Tween-20 10% glycerol) were used. Following a reaction period at 30° C.

Test [1] deals with regulatory T cell (Treg, CD4+CD25+) suppression activity. Description: T CD4 lymphocyte proliferation mediated by mouse regulatory T cells suppression assay. It counts as cell-based. The method, then: To evaluate the ability of the molecules under this patent to increase regulatory T cell (Treg, CD4^+CD25^+) suppression activity a T-cell (responder T cells, Teff) proliferation suppression assay was used. Treg cells at different concentrations were cultured with Teff cells (CD4^+CD25^−) in the presence of proliferative stimuli. T cells need of two stimuli to proliferate: the first given by the recognition of antigen associated with MHC by T cell receptor (TCR) and the second one derived from co-stimulatory molecules such as CD28. In the absence of a specific antigen, TCR activation can take place with an antibody recognizing one of the composing subunits, CD3ε. In this assay, anti-CD3ε monoclonal antibody and CD4 T cell depleted splenocytes were used as activator stimuli. Therefore, the ability to reduce Teff cells proliferation by Tregs in the presence or absence of HDAC6 inhibitors was assessed.
Treg and Teff cells were separated using the Treg isolation kit based on magnetic beads separation technique (Miltenyi Biotec) through an initial negative selection and a final positive selection process.
Single cell suspension was obtained from spleen of C57BL/6 mice using a 70 μm strainer.
Cell suspension was treated with ACK buffer to lyse red blood cells and then centrifuged for 5 minutes at 300×g. After centrifugation, the cells were resuspended in PBS (Phosphate Buffered Saline, Gibco) and counted. Subsequently, splenocytes were resuspended in a buffer consisting of PBS, 0.5% BSA and 2 mM EDTA.
To proceed with the first step of Treg separation, CD4 negative cells were indirectly magnetically labeled with a cocktail of biotin-conjugated antibodies against CD8a, CD11b, CD45R, CD49b, Ter-119 and Anti-Biotin MicroBeads CD4+ cells were thus obtained by negative selection as flow-through of a magnetic MACS column.
Cells bound to microbeads were eluted and conserved for their use as antigen presenting cells (APC) in the proliferation assay.
In the second step of Treg purification, pre-enriched CD4+ cells were labelled with an R-phycoerythrin (PE)-conjugated anti-CD25 antibody that preferentially binds to Treg cells and magnetic beads coupled with an anti PE antibody. The cell suspension was then loaded on a column. The Teff cells pass through the column without binding (negative selection), while beads-bound Treg cells adhere through the magnetic beads (positive selection). Treg cells were then eluted from the column by buffer flow using a plunger. Treg and Teff cell purification is summarized in FIG. 6. • CD4− cells from first positive selection as APC • Treg CD4+ CD25+ as suppressor cells • Teff CD4+ CD25− as responder/proliferating cells
CD4^− cells were treated with mitomycin C (50 μg/ml, Sigma) for 30 min at 37° C. to prevent their proliferation They were then resuspended at a concentration of 4.0×10^5/50 μl in complete medium (RPMI, FBS10%, penicillin/streptomycin 1×, 50 μM beta mercaptoethanol). Teffs were labeled with carboxy fluorescein succinimidyl ester (CFSE) at a concentration of 2 μM in PBS at 37° C., and after 10 minutes incubation, the reaction was blocked with a 10% FBS PBS solution. CFSE labelling allows covalent modification of Teff cell to analyse their proliferation by fluorescence dilution. The labelled Teffs were then centrifuged and resuspended at the final concentration of 5.0×10^4/50 μl in complete medium. Finally, the Tregs obtained by purification were diluted to the final concentration of 5.0×10^4/50 μl in complete medium.
Then a co-culture of Teff (5.0×10^4), T CD4^− (4.0×10^5) was prepared and Treg cells in different ratios (1:1, 1:2, 1:4, 1:8 ratio Teff to Treg cells) were added thereto. The test compounds at different concentrations or DMSO vehicle were added to the cell suspension. Finally, an anti-CD3ε monoclonal antibody (Miltenyi Biotec) was added at a concentration of 1 μg/ml. Cells were plated in flat bottom 96-well plates and each condition was set up in a technical duplicate. […]

The subject of the next test is human PBMCs. Description: Mixed Lymphocytes Reaction (MLR) with human PBMCs (IFN-γ, TNF-α, IL-6). The conditions noted are these: PBMC, 144 h, two-way MLR, 6 days, 1 μM, negative = induction. It counts as cell-based. The method, then: In order to study HDAC6 inhibitors ability to inhibit the activation of allogenic T CD4+ cells, a Mixed Lymphocytes Reaction (MLR or mixed lymphocyte culture, CLM) assay was performed. This is a reaction involving blast transformation of in vitro cultured lymphocytes in the presence of allogeneic lymphocytes. There is the so-called “two-way” reaction wherein the two lymphocyte populations stimulate each other to proliferate, and the so-called “one way” reaction, wherein the proliferation of one of the two populations is inhibited by mitomycin C or irradiation, these cells provide proliferation stimulus (stimulator) to the so-called “responder” cells.
Human peripheral blood mononuclear cells (PBMCs) used in MLR were obtained by Ficoll gradient separation from Buffy Coat of healthy donors.
We used a two-way MLR. The cells from the two donors were plated at 1:1 ratio (allogenic stimulation) to the final concentration of 2×10^5 per well in U-bottom 96 well plates in RPMI 1640 medium with 10% FBS and antibiotics. As a control we individually plated the cells from each donor (singenic stimulus). The experiment for each inhibitor was set in deduplicate for allogeneic stimuli and in quintuplicate for singenic stimuli. The cells were cultured for 6 days in an incubator at 37° C.
After 6 days the effect of the test compounds was evaluated by measuring the production of pro-inflammatory cytokines recognized to be characteristics of this assay.
For this purpose, the culture supernatant was harvested and used for IFN-γ, TNF-α and IL-6 inflammatory cytokine assay.
The JAK inhibitor ruxolitinib was used as the active reference compound in the test.
Values in the table indicate the inhibition percentages. Negative values indicate an induction.

Setting [2] is: read-out: MLR IFN-γ inhibition percentage.
Where [3] appears, read: read-out: MLR IL-6 inhibition percentage.
Where [4] appears, read: read-out: MLR TNF-α inhibition percentage.

Structures are written as SMILES. pIC50: −log10 of the molar value. Read-outs that look alike come from different tables or passages of the source.

In the case of `O=C(NO)c1cc(F)c(Cn2nnc(-c3cccs3)n2)c(F)c1` [comp. 65, 3,5-difluoro-4-[[5-(2-thienyl)tetrazol-2-yl]methyl]benzenecarbohydroxamic acid], the negative-log IC50 (pIC50) against HDAC11 was 6.01. Moreover, the “RS (relative T-reg suppression, AUC drug/AUC control)” value in test [1] (concentration 1 μM) is 4.4. In addition, the figures for the inhibition at 1 µM in the test with human PBMCs (setting [2]), in the test with human PBMCs (setting [3]) and with human PBMCs (setting [4]) were 45%, 5.4% and 67.3%, respectively.

On to `O=C(NO)c1cc(F)c(Cn2nnc(-c3ccco3)n2)c(F)c1` [comp. 19, 3,5-difluoro-4-((5-(furan-2-yl)-2H-tetrazol-2-yl)methyl)-N-hydroxybenzamide], for which the pIC50 against HDAC11 is 6.10. In addition, the “RS (relative T-reg suppression, AUC drug/AUC control)” value in test [1] (concentration 1 μM) came out at 2.3. Besides, the inhibition at 1 µM in the test with human PBMCs (setting [2]) was -7.85%; with human PBMCs (setting [3]), 4.62%; in the test on human PBMCs (setting [4]), 25.9%.

Regarding `O=C(NO)c1cc(F)c(Cn2nnc(-c3ccccn3)n2)c(F)c1` [comp. 6, 3,5-difluoro-N-hydroxy-4-((5-(pyridin-2-yl)-2H-tetrazol-2-yl)methyl)benzamide], the pIC50 against HDAC11 is 5.29. In test [1] (concentration 1 μM), the “RS (relative T-reg suppression, AUC drug/AUC control)” value was 1.7. The inhibition at 1 µM in the test with human PBMCs (setting [2]) was -6.5%; in the test with human PBMCs (setting [3]) it was 15.5%; in the test with human PBMCs (setting [4]), 13.5%.

On HDAC11, `O=C(NO)c1cc(F)c(Cn2nnnc2-c2ccccn2)c(F)c1` [comp. 13, 3,5-difluoro-N-hydroxy-4-((5-(pyridin-2-yl)-1H-tetrazol-1-yl)methyl)benzamide] gave a pIC50 of 5.83. Also, the “RS (relative T-reg suppression, AUC drug/AUC control)” value in test [1] (concentration 1 μM) stood at 1.9. In addition, the inhibition at 1 µM in the test on human PBMCs (setting [2]) is -10.9%; in the test on human PBMCs (setting [3]) it was 38.3%; in the test with human PBMCs (setting [4]) it was 37.2%.

In turn, `Cc1cc(-c2nnc(Sc3ccc(C(=O)NO)cc3)n2C)nn1C` [comp. 85, 4-[[5-(1,5-dimethylpyrazol-3-yl)-4-methyl-1,2,4-triazol-3-yl]sulfanyl]benzenecarbohydroxamic acid] gave a negative-log IC50 (pIC50) against HDAC11 of 6.25. The “RS (relative T-reg suppression, AUC drug/AUC control)” value is 3.0 in test [1] (concentration 0.5 μM) and 3.8 in test [1] (concentration 1 μM). The inhibition at 1 µM came out at 51.8% in the test with human PBMCs (setting [2]), 66.9% with human PBMCs (setting [3]) and 73.8% in the test with human PBMCs (setting [4]).

For the molecule `CCN(CC)S(=O)(=O)c1cccc(-c2nnc(Sc3ccc(C(=O)NO)cc3)n2C)c1` [comp. 66, 4-[[5-[3-(diethylsulfamoyl)phenyl]-4-methyl-1,2,4-triazol-3-yl]sulfanyl]benzenecarbohydroxamic acid], at HDAC11, the negative-log IC50 (pIC50) was 6.00. The “RS (relative T-reg suppression, AUC drug/AUC control)” value in test [1] (concentration 1 μM) is 2.6. The values for the inhibition at 1 µM in the test on human PBMCs (setting [2]), with human PBMCs (setting [3]) and in the test on human PBMCs (setting [4]) were 53%, 12.9% and 42.8%, respectively.

The molecule `O=C(NO)c1cc(F)c(Cn2nnnc2-c2cccs2)c(F)c1` [comp. 15, 3,5-difluoro-N-hydroxy-4-((5-(thiophen-2-yl)-1H-tetrazol-1-yl)methyl)benzamide] had a pIC50 against HDAC11 of 5.34. Moreover, the “RS (relative T-reg suppression, AUC drug/AUC control)” value in test [1] (concentration 1 μM) turned out to be 3.0. Besides, the inhibition at 1 µM with human PBMCs (setting [2]) turned out to be 21%; in the test on human PBMCs (setting [3]), 22.9%; with human PBMCs (setting [4]) it was 33.9%.

As to `CN(C)c1cccc(-c2nnc(Sc3ccc(C(=O)NO)cc3)n2C)c1` [comp. 77, 4-[[5-[3-(dimethylamino)phenyl]-4-methyl-1,2,4-triazol-3-yl]sulfanyl]benzenecarbohydroxamic acid], the negative logarithm of the IC50 (pIC50) at HDAC11 was 5.84. In addition, in test [1] (concentration 1 μM), the “RS (relative T-reg suppression, AUC drug/AUC control)” value was 2.4. Also, the inhibition at 1 µM was determined as 32.1% in the test with human PBMCs (setting [2]), 34.3% in the test with human PBMCs (setting [3]) and 64.2% with human PBMCs (setting [4]).

The molecule `CCN(CC)S(=O)(=O)c1cccc(-c2nnc(Sc3ccc(C(=O)NO)cc3)n2N)c1` [comp. 61, 4-[[4-amino-5-[3-(diethylsulfamoyl)phenyl]-1,2,4-triazol-3-yl]sulfanyl]benzenecarbohydroxamic acid] showed a negative logarithm of the IC50 (pIC50) on HDAC11 of 6.04. In addition, the “RS (relative T-reg suppression, AUC drug/AUC control)” value in test [1] (concentration 1 μM) stood at 1.1. Further, the inhibition at 1 µM in the test with human PBMCs (setting [2]) was 16%; in the test on human PBMCs (setting [3]), -21%.
